Where two headings read alike, the source gives them in different places.
Assays:
[1] = system: genotype 1a-H77 subgenomic replicon cell line; assay: microbe, parasite or virus in culture; assay type: cell-based, HCV; settings: read-out: EC50 1a
[2] = system: genotype 1b-Con1 subgenomic replicon cell line; assay: microbe, parasite or virus in culture; assay type: cell-based, HCV; settings: read-out: EC50 1b

SMILES: COc1c(C=C(F)c2ccc(NS(C)(=O)=O)cc2)cc(N2CCC(=O)NC2=O)cc1C(C)(C)C (racemic) [IA-L1-1.21, N-(4-(2-(3-tert-butyl-5-(2,4-dioxotetrahydropyrimidin-1(2H)-yl)-2-methoxyphenyl)-1-fluorovinyl)phenyl)methanesulfonamide]
- EC50 ([1]; Hepatitis C virus): < 0.01 µM
- EC50 ([2]; Hepatitis C virus): < 0.01 µM

SMILES: COc1c(-c2nc3cc(NS(C)(=O)=O)ccc3[nH]2)cc(N2CCC(=O)NC2=O)cc1C(C)(C)C [IA-L0-2.1, N-(2-(3-tert-butyl-5-(2,4-dioxotetrahydropyrimidin-1(2H)-yl)-2-methoxyphenyl)-1H-benzo[d]imidazol-5-yl)methanesulfonamide]
- EC50 ([1]; Hepatitis C virus): > 1 µM
- EC50 ([2]; Hepatitis C virus): > 1 µM

SMILES: COc1c(-c2nc3ccc(NS(C)(=O)=O)cc3s2)cc(N2CCC(=O)NC2=O)cc1C(C)(C)C [IA-L0-2.2, N-(2-(3-tert-butyl-5-(2,4-dioxotetrahydropyrimidin-1(2H)-yl)-2-methoxyphenyl)benzo[d]thiazol-6-yl)methanesulfonamide]
- EC50 ([1]; Hepatitis C virus): 0.1 to 1 µM
- EC50 ([2]; Hepatitis C virus): 0.01 to 0.1 µM

SMILES: COc1c(-c2nc3ccccc3s2)cc(N2CCC(=O)NC2=O)cc1C(C)(C)C [IA-L0-2.3, 1-(3-(benzo[d]thiazol-2-yl)-5-tert-butyl-4-methoxyphenyl)dihydro pyrimidine-2,4(1H,3H)-dione]
- EC50 ([1]; Hepatitis C virus): 0.1 to 1 µM
- EC50 ([2]; Hepatitis C virus): 0.1 to 1 µM

SMILES: COc1c(-c2nc3cc(NS(C)(=O)=O)ccc3s2)cc(N2CCC(=O)NC2=O)cc1C(C)(C)C [IA-L0-2.4, N-(2-(3-tert-butyl-5-(2,4-dioxotetrahydropyrimidin-1(2H)-yl)-2-methoxyphenyl)benzo[d]thiazol-5-yl)methanesulfonamide]
- EC50 ([1]; Hepatitis C virus): > 1 µM
- EC50 ([2]; Hepatitis C virus): 0.1 to 1 µM

SMILES: COc1c(-c2nc3ccc(NS(C)(=O)=O)cc3o2)cc(N2CCC(=O)NC2=O)cc1C(C)(C)C [IA-L0-2.5, N-(2-(3-tert-butyl-5-(2,4-dioxotetrahydropyrimidin-1(2H)-yl)-2-methoxyphenyl)benzo[d]oxazol-6-yl)methanesulfonamide]
- EC50 ([1]; Hepatitis C virus): > 1 µM
- EC50 ([2]; Hepatitis C virus): > 1 µM

SMILES: COc1c(-c2nc3ccc([N+](=O)[O-])cc3o2)cc(N2CCC(=O)NC2=O)cc1C(C)(C)C [IA-L0-2.6, 1-(3-tert-butyl-4-methoxy-5-(6-nitrobenzo[d]oxazol-2-yl)phenyl) dihydropyrimidine-2,4(1H,3H)-dione]
- EC50 ([1]; Hepatitis C virus): > 1 µM
- EC50 ([2]; Hepatitis C virus): > 1 µM

SMILES: COc1c(-c2nc3cc([N+](=O)[O-])ccc3o2)cc(N2CCC(=O)NC2=O)cc1C(C)(C)C [IA-L0-2.7, 1-(3-tert-butyl-4-methoxy-5-(5-nitrobenzo[d]oxazol-2-yl)phenyl) dihydropyrimidine-2,4(1H,3H)-dione]
- EC50 ([1]; Hepatitis C virus): > 1 µM
- EC50 ([2]; Hepatitis C virus): 0.1 to 1 µM

SMILES: COc1c(-c2nc3cc(NS(C)(=O)=O)ccc3o2)cc(N2CCC(=O)NC2=O)cc1C(C)(C)C [IA-L0-2.8, N-(2-(3-tert-butyl-5-(2,4-dioxotetrahydropyrimidin-1(2H)-yl)-2-methoxyphenyl)benzo[d]oxazol-5-yl)methanesulfonamide]
- EC50 ([1]; Hepatitis C virus): 0.1 to 1 µM
- EC50 ([2]; Hepatitis C virus): 0.01 to 0.1 µM

SMILES: COc1c(-c2ccc3cc(NS(C)(=O)=O)ccc3c2)cc(N2CCC(=O)NC2=O)cc1C(C)(C)C [IA-L0-2.9, N-(6-(3-tert-butyl-5-(2,4-dioxotetrahydropyrimidin-1(2H)-yl)-2-methoxyphenyl)naphthalen-2-yl)methanesulfonamide]
- EC50 ([1]; Hepatitis C virus): < 0.01 µM
- EC50 ([2]; Hepatitis C virus): < 0.01 µM

SMILES: COc1c(/C=C(\Cl)c2ccc(NS(C)(=O)=O)cc2)cc(N2CCC(=O)NC2=O)cc1C(C)(C)C [IA-L1-1.3, (Z)—N-(4-(2-(3-tert-butyl-5-(2,4-dioxotetrahydropyrimidin-1(2H)-yl)-2-methoxyphenyl)-1-chlorovinyl)phenyl)methanesulfonamide]
- EC50 ([1]; Hepatitis C virus): 0.01 to 0.1 µM
- EC50 ([2]; Hepatitis C virus): < 0.01 µM

SMILES: COc1c(/C=C(\F)c2ccc(NS(C)(=O)=O)cc2)cc(N2CCC(=O)NC2=O)cc1C(C)(C)C [IA-L1-1.4, (Z)—N-(4-(2-(3-tert-butyl-5-(2,4-dioxotetrahydropyrimidin-1(2H)-yl)-2-methoxyphenyl)-1-fluorovinyl)phenyl)methanesulfonamide]
- EC50 ([1]; Hepatitis C virus): < 0.01 µM
- EC50 ([2]; Hepatitis C virus): < 0.01 µM

SMILES: COc1c(/C=C(/F)c2ccc(NS(C)(=O)=O)cc2)cc(N2CCC(=O)NC2=O)cc1C(C)(C)C [IA-L1-1.5, (E)-N-(4-(2-(3-tert-butyl-5-(2,4-dioxotetrahydropyrimidin-1(2H)-yl)-2-methoxyphenyl)-1-fluorovinyl)phenyl)methanesulfonamide]
- EC50 ([1]; Hepatitis C virus): 0.01 to 0.1 µM
- EC50 ([2]; Hepatitis C virus): < 0.01 µM

SMILES: COc1c(/C=C(\C)c2ccc(NS(C)(=O)=O)cc2)cc(N2CCC(=O)NC2=O)cc1C(C)(C)C [IA-L1-1.6, (E)-N-(4-(1-(3-tert-butyl-5-(2,4-dioxotetrahydropyrimidin-1(2H)-yl)-2-methoxyphenyl)prop-1-en-2-yl)phenyl)methanesulfonamide]
- EC50 ([1]; Hepatitis C virus): 0.01 to 0.1 µM
- EC50 ([2]; Hepatitis C virus): 0.01 to 0.1 µM

SMILES: COc1c(/C=C/c2ccc(NS(C)(=O)=O)cc2)cc(N2CCC(=O)NC2=O)cc1C(C)(C)C [IA-L1-1.9, (E)-N-(4-(3-tert-butyl-5-(2,4-dioxotetrahydropyrimidin-1(2H)-yl)-2-methoxystyryl)phenyl)methanesulfonamide]
- EC50 ([1]; Hepatitis C virus): 0.01 to 0.1 µM
- EC50 ([2]; Hepatitis C virus): < 0.01 µM

SMILES: COc1c(/C=C/c2ccc(N(C(C)=O)S(C)(=O)=O)cc2)cc(N2CCC(=O)NC2=O)cc1C(C)(C)C [IA-L1-1.11, (E)-N-(4-(3-tert-butyl-5-(2,4-dioxotetrahydropyrimidin-1(2H)-yl)-2-methoxystyryl)phenyl)-N-(methylsulfonyl)acetamide]
- EC50 ([1]; Hepatitis C virus): < 0.01 µM
- EC50 ([2]; Hepatitis C virus): < 0.01 µM

SMILES: COc1c(/C=C/c2ccc(F)cc2)cc(N2CCC(=O)NC2=O)cc1C(C)(C)C [IA-L1-1.12, (E)-1-(3-tert-butyl-5-(4-fluorostyryl)-4-methoxyphenyl) dihydropyrimidine-2,4(1H,3H)-dione]
- EC50 ([1]; Hepatitis C virus): 0.1 to 1 µM
- EC50 ([2]; Hepatitis C virus): 0.1 to 1 µM

SMILES: COc1c(/C=C/c2ccc(N)cc2)cc(N2CCC(=O)NC2=O)cc1C(C)(C)C [IA-L1-1.13, (E)-1-(3-(4-aminostyryl)-5-tert-butyl-4-methoxyphenyl)dihydropyrimidine-2,4(1H,3H)-dione]
- EC50 ([1]; Hepatitis C virus): > 1 µM
- EC50 ([2]; Hepatitis C virus): 0.1 to 1 µM

SMILES: COc1ccc(/C=C/c2cc(N3CCC(=O)NC3=O)cc(C(C)(C)C)c2OC)cc1 [IA-L1-1.14, (E)-1-(3-tert-butyl-4-methoxy-5-(4-methoxystyryl)phenyl) dihydropyrimidine-2,4(1H,3H)-dione]
- EC50 ([1]; Hepatitis C virus): > 1 µM
- EC50 ([2]; Hepatitis C virus): > 1 µM

SMILES: CC(C)(C)c1cc(/C=C/c2ccc(NS(C)(=O)=O)cc2)cc(N2CCC(=O)NC2=O)c1 [IA-L1-1.16, (E)-N-(4-(3-tert-butyl-5-(2,4-dioxotetrahydropyrimidin-1(2H)-yl)styryl)phenyl)methanesulfonamide]
- EC50 ([1]; Hepatitis C virus): 0.01 to 0.1 µM
- EC50 ([2]; Hepatitis C virus): 0.01 to 0.1 µM

SMILES: CO/C(=C\c1cc(N2CCC(=O)NC2=O)cc(C(C)(C)C)c1OC)c1ccc(NS(C)(=O)=O)cc1 [IA-L1-1.17, (Z)—N-(4-(2-(3-tert-butyl-5-(2,4-dioxotetrahydropyrimidin-1(2H)-yl)-2-methoxyphenyl)-1-methoxyvinyl)phenyl)methanesulfonamide]
- EC50 ([1]; Hepatitis C virus): 0.01 to 0.1 µM
- EC50 ([2]; Hepatitis C virus): 0.01 to 0.1 µM

SMILES: COc1c(/C=C/c2ccccc2)cc(N2CCC(=O)NC2=O)cc1C(C)(C)C [IA-L1-1.18, (E)-1-(3-tert-butyl-4-methoxy-5-styrylphenyl)dihydro-pyrimidine-2,4(1H,3H)-dione]
- EC50 ([1]; Hepatitis C virus): 0.1 to 1 µM
- EC50 ([2]; Hepatitis C virus): 0.1 to 1 µM

SMILES: COc1c(/C=C/c2ccc([N+](=O)[O-])cc2)cc(N2CCC(=O)NC2=O)cc1C(C)(C)C [IA-L1-1.22, (E)-1-(3-tert-butyl-4-methoxy-5-(4-nitrostyryl)phenyl)dihydropyrimidine-2,4(1H,3H)-dione]
- EC50 ([1]; Hepatitis C virus): > 1 µM
- EC50 ([2]; Hepatitis C virus): 0.1 to 1 µM

SMILES: COc1c(/C=C(\Cl)c2ccc([N+](=O)[O-])cc2)cc(N2CCC(=O)NC2=O)cc1C(C)(C)C [IA-L1-1.23, 1-{3-tert-butyl-5-[(Z)-2-chloro-2-(4-nitro-phenyl)-vinyl]-4-methoxy-phenyl}-dihydro-pyrimidine-2,4-dione]
- EC50 ([1]; Hepatitis C virus): > 1 µM
- EC50 ([2]; Hepatitis C virus): > 1 µM

SMILES: COc1c(/C=C(\C)c2ccc([N+](=O)[O-])cc2)cc(N2CCC(=O)NC2=O)cc1C(C)(C)C [IA-L1-1.24, 1-{3-tert-butyl-4-methoxy-5-[(E)-2-(4-nitro-phenyl)-propenyl]-phenyl}-dihydro-pyrimidine-2,4-dione]
- EC50 ([1]; Hepatitis C virus): > 1 µM
- EC50 ([2]; Hepatitis C virus): > 1 µM

SMILES: COc1c(/C=C/c2ccc(NS(C)(=O)=O)c(F)c2)cc(N2CCC(=O)NC2=O)cc1C(C)(C)C [IA-L1-1.26, (E)-N-(4-(3-tert-butyl-5-(2,4-dioxotetrahydropyrimidin-1(2H)-yl)-2-methoxystyryl)-2-fluorophenyl)methanesulfonamide]
- EC50 ([1]; Hepatitis C virus): 0.01 to 0.1 µM
- EC50 ([2]; Hepatitis C virus): 0.01 to 0.1 µM

SMILES: CC(C)(C)c1cc(NC(=O)c2ccc(NS(C)(=O)=O)cc2)cc(N2CCC(=O)NC2=O)c1 [IA-L3-1.84, N-(3-tert-butyl-5-(2,4-dioxotetrahydropyrimidin-1(2H)-yl)phenyl)-4-(methylsulfonamido) benzamide]
- EC50 ([1]; genotype 1a-H77 replicon, luciferase reporter): > 1 µM
- EC50 ([2]; genotype 1b-Con1 replicon, luciferase reporter): > 1 µM

SMILES: COc1c(-c2ccc3c(c2)CC/C3=N\NS(C)(=O)=O)cc(-n2ccc(=O)[nH]c2=O)cc1C(C)(C)C [IB-L0-2.4, (E)-N′-(5-(3-tert-butyl-5-(2,4-dioxo-3,4-dihydropyrimidin-1(2H)-yl)-2-methoxyphenyl)-2,3-dihydro-1H-inden-1-ylidene)methanesulfonohydrazide]
- EC50 ([2]; Hepatitis C virus): < 0.01 µM

SMILES: CC(C)(C)c1cc(-c2ccc3cc(NS(C)(=O)=O)ccc3c2)cc(-n2ccc(=O)[nH]c2=O)c1 [IB-L0-2.8, N-(6-(3-tert-butyl-5-(2,4-dioxo-3,4-dihydropyrimidin-1(2H)-yl)phenyl)naphthalen-2-yl)methanesulfonamide]
- EC50 ([2]; Hepatitis C virus): 0.01 to 0.1 µM

SMILES: COc1c(/C=C/c2ccc(NS(C)(=O)=O)cc2)cc(-n2cc(F)c(=O)[nH]c2=O)cc1C(C)(C)C [IB-L1-1.2, (E)-N-(4-(3-tert-butyl-5-(5-fluoro-2,4-dioxo-3,4-dihydro-pyrimidin-1(2H)-yl)-2-methoxystyryl)phenyl)methanesulfonamide]
- EC50 ([2]; Hepatitis C virus): 0.01 to 0.1 µM

Source: patent US8415351B2 (priority 2007, dated 2013)
